IC50 data for 2 compounds are collected here from ChEMBL document CHEMBL1201862, “PubChem BioAssay data set” (2004).

Activity calls are given as the source filed them. Rule as the data show it: actives have a measured IC50 and inactives only a lower limit.

The target of this assay is Envelope glycoprotein gp160 (Human immunodeficiency virus 1, UniProt Q6QLK5). Put plainly: cell-free HIV fusion peptide-binding blockers – biochemical, uHTS, fluorescence dequenching, […] (AID 1986).
Envelope glycoprotein gp160, sequence (Q6QLK5 whole entry, the tested form may be a part): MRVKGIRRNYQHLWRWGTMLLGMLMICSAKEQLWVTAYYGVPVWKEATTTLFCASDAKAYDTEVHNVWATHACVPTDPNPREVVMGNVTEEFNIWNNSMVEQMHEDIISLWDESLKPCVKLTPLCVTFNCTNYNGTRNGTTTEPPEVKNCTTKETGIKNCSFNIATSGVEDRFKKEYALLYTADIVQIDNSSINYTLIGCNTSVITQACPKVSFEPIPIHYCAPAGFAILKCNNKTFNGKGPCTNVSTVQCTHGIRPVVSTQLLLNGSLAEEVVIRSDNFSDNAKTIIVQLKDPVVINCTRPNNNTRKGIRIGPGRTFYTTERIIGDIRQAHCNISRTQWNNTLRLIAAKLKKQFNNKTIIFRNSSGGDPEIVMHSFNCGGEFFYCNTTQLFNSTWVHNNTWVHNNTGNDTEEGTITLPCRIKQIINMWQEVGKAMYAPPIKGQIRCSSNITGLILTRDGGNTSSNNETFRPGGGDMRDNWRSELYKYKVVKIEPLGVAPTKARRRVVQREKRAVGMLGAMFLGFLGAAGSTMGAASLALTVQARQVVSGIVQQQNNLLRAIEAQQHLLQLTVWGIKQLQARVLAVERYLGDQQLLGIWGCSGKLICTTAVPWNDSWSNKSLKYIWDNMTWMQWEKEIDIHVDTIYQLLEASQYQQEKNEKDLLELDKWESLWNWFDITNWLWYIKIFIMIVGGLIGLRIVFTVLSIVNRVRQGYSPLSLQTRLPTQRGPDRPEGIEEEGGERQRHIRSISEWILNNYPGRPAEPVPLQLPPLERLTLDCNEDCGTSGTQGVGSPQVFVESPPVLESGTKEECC

For `COc1cc(C(c2c(C(=O)O)[nH]c3ccccc23)c2c(C(=O)O)[nH]c3ccccc23)ccc1OCc1ccccc1`, the half-maximal inhibitory concentration (IC50) (as a rule, the concentration that gives 50% inhibition) is 7.01 µM (active). The result for `CN(C)S(=O)(=O)c1cccc(-c2nn(-c3ccccc3)cc2/C=C2\SC(=S)NC2=O)c1` reads 11.8 µM (active).
